This note sets out measurements from the supplement of paper PMC11061612.

Assay in all cases: combination Emax (second highest fraction inhibited in the dose matrix, 72 h); higher = more inhibition; extreme values may be limits of the assay
For assay [1], the system named is OCI-AML2 (Acute Myeloid Leukemia). The method in brief: (§1)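 After 24 hours at 37°C and 5% CO2 in 1536-well plates, cells in DMEM/F12 or RPMI plus 10% FBS received two-drug dose matrices for 72 hours. Viability came from CellTiter-Glo 2.0 luminescence and was scaled as inhibition, anchored at 0 by vehicle wells and at 1 by blank wells. Combination Emax is taken as the second-highest inhibition in the matrix, and Bliss excess as the observed combination effect less EA + EB − EA·EB, with EA and EB the single-agent effects.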

Assay [2] has as its system KARPAS-620 (Plasma Cell Myeloma). The method in brief: as §1
Assay [3] relates to NALM-6 (B-Lymphoblastic Leukemia). The method in brief: as §1
For assay [4], the system named is KARPAS-1106P (B-Cell Non-Hodgkin's Lymphoma). The method, boiled down:
as §1

The test system of assay [5] is NCI-H2595 (Mesothelioma). The method, boiled down:
as §1

In assay [6] the test system is LS-513 (Colorectal Carcinoma). The method in brief: as §1
In assay [7] the test system is DOV13 (Ovarian Carcinoma). The method, boiled down: as §1
Assay [8] has as its system SW1990 (Pancreatic Carcinoma). The method in brief: as §1
For assay [9], the system named is IHH-4 (Thyroid Gland Carcinoma). The method, boiled down: as §1
Assay [10] deals with DB (B-Cell Non-Hodgkin's Lymphoma). The method, boiled down:
as §1

The subject of assay [11] is MFH-ino (Other Solid Carcinomas). The method, boiled down:
as §1

Assay [12] has as its system NCI-H1299 (Non-Small Cell Lung Carcinoma). The method in brief:
as §1

In assay [13] the test system is U-266 (Plasma Cell Myeloma). The method in brief:
as §1

For assay [14], the system named is SW1088 (Low Grade Glioma). The method in brief:
as §1

Assay [15] has as its system NCI-H211 (Small Cell Lung Carcinoma). The method in brief: as §1
Assay [16] relates to ES7 (Ewing's Sarcoma). The method in brief: as §1
The subject of assay [17] is SK-N-FI (Neuroblastoma). The method, boiled down:
as §1

Assay [18] concerns MDA-MB-157 (Breast Carcinoma). The method, boiled down:
as §1

Assay [19] concerns SN12C (Kidney Carcinoma). The method in brief:
as §1

Assay [20] relates to SW1783 (Low Grade Glioma). The method, boiled down: as §1

As for `O=C(c1cc(Cc2n[nH]c(=O)c3ccccc23)ccc1F)N1CCN(C(=O)C2CC2)CC1` [Olaparib] + Cc1c2c(nn1C)CSCc1cc(n(C)n1)CSc1cc(c3ccccc3c1)OCCCc1c(C(=O)O)n(C)c3c-2c(Cl)ccc13 [AZD5991] (first compound max 10 µM, 7x7, partner max 1 µM), the “combination Emax” value in assay [1] came to 0.953; in assay [2], 1; in [3], 0.74; in assay [4], 0.919; in [5], 0.217; in assay [6], 0.204. For the same compound, the “combination Emax” value was 0.216 in assay [7]; 0.238 in [8]; 0.174 in assay [9]; 0.994 in assay [10]; 0.0277 in assay [11]; 0.0533 in assay [12]. Besides, the “combination Emax” value in [13] stood at 0.846; in [14] it was 0.136; in assay [15], 0.957; in assay [16], 0.942; in [17], 0.211; in [18], 0.655. In addition, the “combination Emax” value in [19] came out at 0.065; in assay [20], 0.0425.
With `N#Cc1cnc(Nc2cc(NC[C@H]3CNCCO3)c(C(F)(F)F)cn2)cn1` [SRA737] + Nc1ccn([C@@H]2O[C@H](CO)[C@@H](O)C2(F)F)c(=O)n1 [Gemcitabine] (first compound max 10 µM, 7x7, partner max 0.3 µM), the “combination Emax” value in [1] was 1; in assay [2] it was 0.801; in [3], 0.954; in assay [4] it was 0.951; in [5], 0.397; in assay [6], 0.801. Further, the “combination Emax” value in [7] is 0.97; in assay [8] it was 0.505; in assay [9], 1; in [10], 0.931; in assay [11] it was 0.738; in assay [12] it was 0.765. The “combination Emax” value in assay [13] amounted to 0.78; in [14] it was 0.626; in assay [15], 0.977; in assay [16] it was 0.989; in [17], 0.752; in assay [18] it was 0.905. In addition, the “combination Emax” value in assay [19] is 0.664; in assay [20] it was 0.729.
In the case of `N#Cc1cnc(Nc2cc(NC[C@H]3CNCCO3)c(C(F)(F)F)cn2)cn1` [SRA737] + CCc1c2c(nc3ccc(O)cc13)-c1cc3c(c(=O)n1C2)COC(=O)[C@]3(O)CC [SN-38] (first compound max 10 µM, 7x7, partner max 0.3 µM), the “combination Emax” value in assay [1] was determined as 1; in assay [2], 0.658; in assay [3], 1; in [4], 0.902; in assay [5] it was 0.389; in assay [6] it was 0.742. In addition, the “combination Emax” value in assay [7] worked out at 0.994; in [8], 0.519; in [9], 0.98; in [10], 0.988; in assay [11] it was 0.704; in [12] it was 0.559. Moreover, the “combination Emax” value in [13] turned out to be 0.576; in assay [14], 0.736; in [15], 0.987; in assay [16], 1; in assay [17] it was 0.606; in assay [18], 0.955. For the same compound, the results for the “combination Emax” value in [19] and in assay [20] were 0.627 and 0.857, respectively.
For the compound `CC1(C)CCC(CN2CCN(c3ccc(C(=O)NS(=O)(=O)c4ccc(NCC5CCOCC5)c([N+](=O)[O-])c4)c(Oc4cnc5[nH]ccc5c4)c3)CC2)=C(c2ccc(Cl)cc2)C1` [Venetoclax] + CS(=O)(=O)CCNCc1ccc(-c2ccc3ncnc(Nc4ccc(OCc5cccc(F)c5)c(Cl)c4)c3c2)o1 [Lapatinib] (first compound max 1 µM, 7x7, partner max 10 µM), the “combination Emax” value in [1] turned out to be 1; in assay [2] it was 0.981; in assay [3], 0.911; in [4], 0.419; in assay [5], 0.197; in assay [6], 0.615. In addition, the “combination Emax” value was 0.166 in assay [7]; 0.174 in assay [8]; 0.175 in assay [9]; 0.949 in [10]; 0.0533 in assay [11]; 0.125 in assay [12]. Further, the “combination Emax” value in [13] came out at 0.254; in assay [14] it was 0.254; in [15], 1; in assay [16] it was 0.613; in [17], 0.223; in assay [18], 0.172. Further, the “combination Emax” value is 0.222 in assay [19] and 0.207 in assay [20].
On to `CN(CCO)CC[C@H](CSc1ccccc1)Nc1ccc(S(=O)(=O)NC(=O)c2ccc(N3CCC([C@@H](O)c4ccccc4-c4ccc(Cl)cc4)CC3)cc2)cc1S(=O)(=O)C(F)(F)F` [AZD4320] + CS(=O)(=O)CCNCc1ccc(-c2ccc3ncnc(Nc4ccc(OCc5cccc(F)c5)c(Cl)c4)c3c2)o1 [Lapatinib] (first compound max 1 µM, 7x7, partner max 10 µM), for which the “combination Emax” value in assay [1] was 1; in [2] it was 1; in assay [3], 1; in assay [4], 0.401; in assay [5], 0.329; in [6], 0.956. Also, the “combination Emax” value in assay [7] is 1; in [8] it was 0.302; in [9] it was 0.268; in assay [10], 1; in assay [11] it was 0.262; in assay [12] it was 0.244. Besides, the “combination Emax” value in assay [13] came out at 0.701; in assay [14], 0.388; in [15], 1; in assay [16] it was 0.984; in [17], 0.578; in assay [18], 0.328. Also, the “combination Emax” value in assay [19] was determined as 0.347; in assay [20], 0.883.
On to `CN(CCO)CC[C@H](CSc1ccccc1)Nc1ccc(S(=O)(=O)NC(=O)c2ccc(N3CCC([C@@H](O)c4ccccc4-c4ccc(Cl)cc4)CC3)cc2)cc1S(=O)(=O)C(F)(F)F` [AZD4320] + Nc1ccn([C@@H]2O[C@H](CO)[C@@H](O)C2(F)F)c(=O)n1 [Gemcitabine] (first compound max 1 µM, 7x7, partner max 0.3 µM), for which the “combination Emax” value was 1 in [1]; 1 in assay [2]; 1 in assay [3]; 0.943 in assay [4]; 0.382 in assay [5]; 0.855 in assay [6]. Moreover, the “combination Emax” value is 1 in [7]; 0.627 in assay [8]; 1 in assay [9]; 1 in assay [10]; 0.873 in [11]; 0.482 in assay [12]. Moreover, the “combination Emax” value came to 0.857 in [13]; 0.151 in assay [14]; 1 in [15]; 0.997 in assay [16]; 0.378 in assay [17]; 0.674 in assay [18]. For the same compound, the “combination Emax” value came out at 0.52 in assay [19] and 0.911 in [20].
